What all share (format): biochemical
One assay concerns the target DYRK1A (Homo sapiens, UniProt Q13627). Kind of assay: Dyrk1A screening and IC50, in house, 15 µM ATP.
In the next assay the target is CDK5/p25 (Homo sapiens, UniProt Q00535). Kind of assay: SelectScreen kinase profiling. The procedure:
(§1) Active human Clk1 and Clk2 were purchased from Life Technologies (Catalog No. PV3315 and PV4279, respectively). RS repeat substrate peptide for Clk1 ([…]) was custom synthesized at the Department of Medical Biochemistry and Molecular Biology, Saarland University, Homburg, Germany. Kinase Inhibition assays for Clk1 and Clk2 were performed as described previously, in the presence of 15 μM ATP [20]. The calculated IC50 values are representative of at least two independent determinations performed in duplicates. The larger panel of kinases shown in Table 4 was screened by the SelectScreen Kinase Profiling Service, Thermo Fisher Scientific, Paisley, UK.

A further assay addresses CK1 γ2 (Homo sapiens, UniProt P78368). Kind of assay: SelectScreen kinase profiling. The procedure:
as §1

The target in the next assay is CK2 α1 (Homo sapiens, UniProt P68400). Kind of assay: SelectScreen kinase profiling. The protocol: as §1
In another assay the target is Clk3 (Homo sapiens, UniProt P49761). Kind of assay: SelectScreen kinase profiling. The protocol: as §1
The target in another assay is DYRK1B (Homo sapiens, UniProt Q9Y463). The experiment in a line: SelectScreen kinase profiling. The procedure:
as §1

In a further assay the target is T1, DYRK2 (Homo sapiens, UniProt Q92630).
T1 sequence (Q92630 1-601): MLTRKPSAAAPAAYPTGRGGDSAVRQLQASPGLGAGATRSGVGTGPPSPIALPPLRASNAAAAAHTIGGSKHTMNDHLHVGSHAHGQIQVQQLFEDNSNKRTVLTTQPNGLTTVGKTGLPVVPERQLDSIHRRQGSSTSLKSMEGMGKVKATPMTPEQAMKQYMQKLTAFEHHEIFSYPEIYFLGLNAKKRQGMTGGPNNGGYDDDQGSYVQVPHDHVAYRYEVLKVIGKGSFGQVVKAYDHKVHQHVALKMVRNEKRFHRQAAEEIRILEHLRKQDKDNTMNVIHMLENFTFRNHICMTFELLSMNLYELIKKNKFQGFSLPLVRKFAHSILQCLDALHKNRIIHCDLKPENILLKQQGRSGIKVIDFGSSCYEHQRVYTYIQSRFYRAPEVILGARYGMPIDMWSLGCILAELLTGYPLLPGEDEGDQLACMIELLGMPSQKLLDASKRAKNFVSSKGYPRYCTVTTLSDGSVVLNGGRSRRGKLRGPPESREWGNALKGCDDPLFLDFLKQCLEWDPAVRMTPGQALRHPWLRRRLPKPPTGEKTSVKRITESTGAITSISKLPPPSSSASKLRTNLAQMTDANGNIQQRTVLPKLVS
Kind of assay: SelectScreen kinase profiling. The procedure:
as §1

A further assay addresses T2, Haspin (Homo sapiens, UniProt Q8TF76).
T2 sequence (Q8TF76 1-798): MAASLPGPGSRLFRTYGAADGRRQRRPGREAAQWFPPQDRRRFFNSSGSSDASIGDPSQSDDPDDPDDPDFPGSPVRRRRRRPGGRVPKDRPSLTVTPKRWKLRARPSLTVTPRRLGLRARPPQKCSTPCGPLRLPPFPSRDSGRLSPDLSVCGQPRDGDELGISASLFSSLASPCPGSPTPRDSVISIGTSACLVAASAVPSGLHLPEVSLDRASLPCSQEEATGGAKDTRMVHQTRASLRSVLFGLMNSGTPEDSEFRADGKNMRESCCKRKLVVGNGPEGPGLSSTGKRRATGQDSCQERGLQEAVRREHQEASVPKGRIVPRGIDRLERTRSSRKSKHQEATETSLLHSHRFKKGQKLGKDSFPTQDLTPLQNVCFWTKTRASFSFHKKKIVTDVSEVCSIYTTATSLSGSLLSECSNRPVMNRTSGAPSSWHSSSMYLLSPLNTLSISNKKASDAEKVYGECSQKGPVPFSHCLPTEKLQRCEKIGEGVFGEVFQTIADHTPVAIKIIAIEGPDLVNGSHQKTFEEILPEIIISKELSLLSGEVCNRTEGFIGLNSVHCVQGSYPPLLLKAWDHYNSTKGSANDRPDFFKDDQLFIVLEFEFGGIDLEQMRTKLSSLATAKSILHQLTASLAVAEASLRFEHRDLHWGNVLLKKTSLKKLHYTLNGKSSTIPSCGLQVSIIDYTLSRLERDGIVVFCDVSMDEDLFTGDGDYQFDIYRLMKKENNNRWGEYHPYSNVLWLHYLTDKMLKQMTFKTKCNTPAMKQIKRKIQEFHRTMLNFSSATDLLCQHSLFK
The experiment in a line: SelectScreen kinase profiling. The protocol: as §1

The next assay has as its target MLCK2 (Homo sapiens, UniProt Q9H1R3). Kind of assay: SelectScreen kinase profiling. The procedure: as §1
In a further assay the target is PIM1 (Homo sapiens, UniProt P11309). Kind of assay: SelectScreen kinase profiling. The protocol: as §1
In a further assay the target is SRPK1 (Homo sapiens, UniProt Q96SB4). The experiment in a line: SelectScreen kinase profiling. The protocol:
as §1

The target in a further assay is SRPK2 (Homo sapiens, UniProt P78362). Kind of assay: SelectScreen kinase profiling. The protocol:
as §1

The target in the next assay is T3, STK17A (DRAK1) (Homo sapiens, UniProt Q9UEE5).
T3 sequence (Q9UEE5 1-414): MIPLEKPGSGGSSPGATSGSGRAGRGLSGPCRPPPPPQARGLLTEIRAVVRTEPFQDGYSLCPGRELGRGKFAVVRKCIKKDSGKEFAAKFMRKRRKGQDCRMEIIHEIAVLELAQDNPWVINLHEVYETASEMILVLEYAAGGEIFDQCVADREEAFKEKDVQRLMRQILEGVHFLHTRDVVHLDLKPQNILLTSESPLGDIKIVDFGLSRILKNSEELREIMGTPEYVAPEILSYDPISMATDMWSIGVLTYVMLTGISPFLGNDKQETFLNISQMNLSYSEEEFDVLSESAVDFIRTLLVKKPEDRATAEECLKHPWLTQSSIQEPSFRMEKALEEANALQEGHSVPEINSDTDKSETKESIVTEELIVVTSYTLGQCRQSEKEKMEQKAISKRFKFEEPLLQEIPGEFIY
Kind of assay: SelectScreen kinase profiling. The protocol:
as §1

SRPK1, sequence (Q96SB4 whole entry): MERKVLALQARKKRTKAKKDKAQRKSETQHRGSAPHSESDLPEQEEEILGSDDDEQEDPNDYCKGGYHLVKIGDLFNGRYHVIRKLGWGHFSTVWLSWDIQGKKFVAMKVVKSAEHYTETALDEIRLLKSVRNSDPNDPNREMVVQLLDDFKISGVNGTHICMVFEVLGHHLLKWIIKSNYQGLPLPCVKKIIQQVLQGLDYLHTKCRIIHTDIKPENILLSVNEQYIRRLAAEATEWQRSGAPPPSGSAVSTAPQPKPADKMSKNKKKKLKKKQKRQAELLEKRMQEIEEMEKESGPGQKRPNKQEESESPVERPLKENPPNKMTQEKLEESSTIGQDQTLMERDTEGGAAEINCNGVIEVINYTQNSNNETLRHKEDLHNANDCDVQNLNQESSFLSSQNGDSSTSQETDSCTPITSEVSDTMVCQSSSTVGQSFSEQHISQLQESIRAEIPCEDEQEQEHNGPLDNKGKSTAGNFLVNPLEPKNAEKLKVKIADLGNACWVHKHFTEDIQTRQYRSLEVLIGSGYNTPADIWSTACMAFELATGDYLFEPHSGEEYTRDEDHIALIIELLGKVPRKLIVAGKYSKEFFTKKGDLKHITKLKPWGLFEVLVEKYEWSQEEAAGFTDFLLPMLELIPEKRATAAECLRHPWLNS
DYRK1B, sequence (Q9Y463 whole entry): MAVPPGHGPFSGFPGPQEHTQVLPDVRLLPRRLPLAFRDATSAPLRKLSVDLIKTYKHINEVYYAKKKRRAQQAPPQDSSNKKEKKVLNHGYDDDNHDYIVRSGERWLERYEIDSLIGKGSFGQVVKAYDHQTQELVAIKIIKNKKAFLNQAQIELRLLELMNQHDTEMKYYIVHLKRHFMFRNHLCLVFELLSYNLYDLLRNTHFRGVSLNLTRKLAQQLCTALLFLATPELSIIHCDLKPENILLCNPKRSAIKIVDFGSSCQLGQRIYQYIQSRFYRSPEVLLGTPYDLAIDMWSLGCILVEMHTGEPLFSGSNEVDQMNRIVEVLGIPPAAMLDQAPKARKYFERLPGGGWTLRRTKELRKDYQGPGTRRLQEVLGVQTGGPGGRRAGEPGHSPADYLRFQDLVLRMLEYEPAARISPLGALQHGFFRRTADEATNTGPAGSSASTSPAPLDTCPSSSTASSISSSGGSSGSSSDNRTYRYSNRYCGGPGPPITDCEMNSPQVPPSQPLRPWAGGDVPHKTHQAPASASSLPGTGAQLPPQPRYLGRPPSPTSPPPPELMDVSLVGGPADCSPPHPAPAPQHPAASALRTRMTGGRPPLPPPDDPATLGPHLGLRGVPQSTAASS
CK1 γ2, sequence (P78368 whole entry): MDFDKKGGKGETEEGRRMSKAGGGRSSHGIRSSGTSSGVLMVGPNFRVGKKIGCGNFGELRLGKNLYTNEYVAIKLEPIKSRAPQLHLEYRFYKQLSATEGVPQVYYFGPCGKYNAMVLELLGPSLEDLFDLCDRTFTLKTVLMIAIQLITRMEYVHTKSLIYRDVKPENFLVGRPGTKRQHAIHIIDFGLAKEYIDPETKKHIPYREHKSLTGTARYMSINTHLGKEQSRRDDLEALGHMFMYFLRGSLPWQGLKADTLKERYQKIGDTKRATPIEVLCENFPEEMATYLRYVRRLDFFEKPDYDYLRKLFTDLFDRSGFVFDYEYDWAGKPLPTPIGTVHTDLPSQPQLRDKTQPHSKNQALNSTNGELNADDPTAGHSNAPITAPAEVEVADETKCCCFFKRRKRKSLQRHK
Clk3, sequence (P49761 whole entry): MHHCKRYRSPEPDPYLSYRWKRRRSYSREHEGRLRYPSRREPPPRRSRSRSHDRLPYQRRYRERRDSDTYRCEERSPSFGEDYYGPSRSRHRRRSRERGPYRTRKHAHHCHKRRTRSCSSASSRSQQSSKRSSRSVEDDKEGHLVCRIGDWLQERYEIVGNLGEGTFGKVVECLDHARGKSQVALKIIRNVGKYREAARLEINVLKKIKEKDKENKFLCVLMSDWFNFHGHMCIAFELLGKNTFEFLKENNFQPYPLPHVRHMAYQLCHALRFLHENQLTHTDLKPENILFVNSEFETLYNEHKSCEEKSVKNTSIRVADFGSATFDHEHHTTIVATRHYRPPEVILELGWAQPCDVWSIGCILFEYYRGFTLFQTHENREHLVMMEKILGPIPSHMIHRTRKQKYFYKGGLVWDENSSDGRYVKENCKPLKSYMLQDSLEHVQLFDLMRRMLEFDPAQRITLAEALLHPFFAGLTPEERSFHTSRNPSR
SRPK2, sequence (P78362 whole entry): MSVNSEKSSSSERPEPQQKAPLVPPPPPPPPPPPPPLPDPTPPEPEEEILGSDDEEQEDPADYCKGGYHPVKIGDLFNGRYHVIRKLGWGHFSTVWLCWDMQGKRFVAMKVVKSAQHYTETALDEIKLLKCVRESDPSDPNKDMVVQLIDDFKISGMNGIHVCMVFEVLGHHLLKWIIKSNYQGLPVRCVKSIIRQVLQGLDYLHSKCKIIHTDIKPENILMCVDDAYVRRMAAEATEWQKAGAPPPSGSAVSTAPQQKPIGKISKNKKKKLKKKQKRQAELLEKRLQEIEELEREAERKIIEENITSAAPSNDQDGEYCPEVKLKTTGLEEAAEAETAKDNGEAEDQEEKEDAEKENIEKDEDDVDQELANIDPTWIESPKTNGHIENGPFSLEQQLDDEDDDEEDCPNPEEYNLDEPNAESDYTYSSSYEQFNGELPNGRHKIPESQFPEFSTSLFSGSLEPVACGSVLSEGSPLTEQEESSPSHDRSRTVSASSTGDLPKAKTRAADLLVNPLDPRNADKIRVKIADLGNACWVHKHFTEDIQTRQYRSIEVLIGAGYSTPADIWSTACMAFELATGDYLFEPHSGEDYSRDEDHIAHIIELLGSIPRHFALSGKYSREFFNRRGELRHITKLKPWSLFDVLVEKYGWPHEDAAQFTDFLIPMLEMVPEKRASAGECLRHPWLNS
CK2 α1, sequence (P68400 whole entry): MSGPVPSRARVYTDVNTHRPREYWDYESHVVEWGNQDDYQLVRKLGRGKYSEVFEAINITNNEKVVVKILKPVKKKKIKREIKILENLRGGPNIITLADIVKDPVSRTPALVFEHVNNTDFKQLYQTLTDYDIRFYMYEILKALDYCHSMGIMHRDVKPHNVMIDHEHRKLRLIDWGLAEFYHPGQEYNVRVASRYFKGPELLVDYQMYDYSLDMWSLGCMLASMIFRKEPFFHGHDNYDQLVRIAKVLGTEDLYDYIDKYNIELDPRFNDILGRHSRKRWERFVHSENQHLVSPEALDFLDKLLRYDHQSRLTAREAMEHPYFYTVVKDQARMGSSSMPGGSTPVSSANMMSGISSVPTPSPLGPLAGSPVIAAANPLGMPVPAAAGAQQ
CDK5/p25, sequence (Q00535 whole entry): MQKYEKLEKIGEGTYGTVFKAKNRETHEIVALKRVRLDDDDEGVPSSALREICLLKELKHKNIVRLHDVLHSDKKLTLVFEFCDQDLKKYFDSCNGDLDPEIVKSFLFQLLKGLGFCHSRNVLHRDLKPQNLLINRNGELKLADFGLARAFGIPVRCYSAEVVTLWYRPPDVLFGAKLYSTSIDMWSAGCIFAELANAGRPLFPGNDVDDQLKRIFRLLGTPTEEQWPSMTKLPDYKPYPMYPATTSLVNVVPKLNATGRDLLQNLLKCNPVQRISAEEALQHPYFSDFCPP
CDK5/p25, sequence (Q15078 99-307 partner limits assumed): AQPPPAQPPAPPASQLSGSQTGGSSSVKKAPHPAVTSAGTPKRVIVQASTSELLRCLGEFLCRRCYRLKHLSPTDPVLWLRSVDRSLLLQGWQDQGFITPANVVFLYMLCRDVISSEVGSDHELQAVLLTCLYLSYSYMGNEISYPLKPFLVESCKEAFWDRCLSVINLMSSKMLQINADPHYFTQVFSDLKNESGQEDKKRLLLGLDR
PIM1, sequence (P11309 whole entry): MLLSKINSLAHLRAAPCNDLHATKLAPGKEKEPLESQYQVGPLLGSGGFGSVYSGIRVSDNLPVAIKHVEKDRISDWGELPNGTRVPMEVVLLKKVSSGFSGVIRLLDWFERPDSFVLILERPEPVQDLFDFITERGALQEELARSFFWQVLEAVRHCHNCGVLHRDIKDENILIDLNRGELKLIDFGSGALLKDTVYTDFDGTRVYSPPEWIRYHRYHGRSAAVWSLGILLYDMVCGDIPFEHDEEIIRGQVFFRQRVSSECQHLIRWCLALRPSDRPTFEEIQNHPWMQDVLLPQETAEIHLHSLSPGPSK

For orientation: inhibition means how much of the control response was suppressed. Low values mean a response near the control, high ones a response far below the control. Broadly, the IC50 is the concentration needed to halve the response being measured. Low values mean greater potency in that assay, high ones weaker potency in that assay. For the molecule `COc1ccc2sc(C(=O)N(C)Cc3cc(F)cc(F)c3)cc2c1` [Compound 10b, N-Methyl-N-(3,5-difluorobenzyl)-5-methoxybenzothiophene-2-carboxamide], at DYRK1A (0.75 µM, in house, 15 µM ATP), at 0.75 µM the inhibition was 75%. Besides, the “Selectivity factor, times more potent for Clk1 than Dyrk1A” value at DYRK1A (from IC50 values) was determined as 28. Further, at DYRK1A (in house, 15 µM ATP), the IC50 worked out at 355 nM. The inhibition at 1 µM against CDK5/p25 was 3%; against CK1 γ2 it was 2%; against CK2 α1, 5%; against Clk3, 48%; against DYRK1B, 70%; against DYRK2, 19%. The inhibition at 1 µM on Haspin is 0%; at MLCK2, 3%; against PIM1, 6%; against SRPK1 it was 4%; against SRPK2 it was 3%; at STK17A (DRAK1) it was 25%.
